In patent publication US20220356186A1, “PERK INHIBITING PYRROLOPYRIMIDINE COMPOUNDS” (HiberCell, Inc., priority 2019, published 2022):
Read-outs that look alike come from different tables or passages of the source.

What was measured:
[1] = tested on: GFP-eIF2α in HEK293 cells; assay: PERK cellular assay, TR-FRET in HEK293-EGFP-eIF2a cells after tunicamycin-induced ER stress; type: cell-based; conditions: HEK293-EGFP-eIF2a cells, tunicamycin 2 hours, read-out: Cellular eIF2α IC50
Method in brief: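 HEK293 cells stably expressing GFP-eIF2α, plated 5000 cells/well overnight, pretreated with inhibitors 30 min at 37 °C, then ER stress induced with tunicamycin […] for 2 h.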

[2] = target: T1, EIF2AK3 (PERK) catalytic domain (amino acids 536-1116) (Homo sapiens, UniProt Q9NZJ5); assay: PERK in vitro activity assay (isolated), TR-FRET kinase assay; type: biochemical; conditions: isolated PERK enzyme, 1.5 μM ATP; read-out: Biochemical IC50
T1 construct: EIF2AK3 (PERK) catalytic domain (amino acids 536-1116)
T1 sequence (Q9NZJ5 536-1116): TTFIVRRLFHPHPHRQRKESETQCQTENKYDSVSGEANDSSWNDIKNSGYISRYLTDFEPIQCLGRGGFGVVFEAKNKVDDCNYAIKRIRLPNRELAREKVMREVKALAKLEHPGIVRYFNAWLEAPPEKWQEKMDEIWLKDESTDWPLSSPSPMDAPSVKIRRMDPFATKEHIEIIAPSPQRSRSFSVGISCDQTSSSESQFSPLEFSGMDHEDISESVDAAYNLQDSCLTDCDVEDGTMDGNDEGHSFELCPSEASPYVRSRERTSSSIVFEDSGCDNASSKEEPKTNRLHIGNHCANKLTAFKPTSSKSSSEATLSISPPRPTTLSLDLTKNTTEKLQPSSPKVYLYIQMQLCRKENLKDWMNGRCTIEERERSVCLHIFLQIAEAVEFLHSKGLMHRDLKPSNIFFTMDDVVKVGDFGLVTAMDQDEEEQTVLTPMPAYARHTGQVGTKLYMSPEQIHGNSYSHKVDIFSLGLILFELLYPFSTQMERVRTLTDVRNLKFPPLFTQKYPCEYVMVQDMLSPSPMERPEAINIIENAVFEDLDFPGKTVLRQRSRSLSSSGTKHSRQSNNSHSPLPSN
Method in brief: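 Human PERK catalytic domain (aa 536-1116) phosphorylating 100-200 nM GFP-eIF2a in 50 mM HEPES pH 7.5, 10 mM MgCl2, 1 mM EGTA, 0.01% Brij-35; enzyme-started, 45 min at room temperature. Stopped with 10 mM EDTA, 2 nM Tb-anti-phospho-eIF2a added for 90 min; IC50 from TR-FRET ratios by 4-parameter logistic fit.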

Compound	IC50 [2] [nM]	IC50 [1] [nM]	IC50 ([1]; Homo sapiens, HEK293, 2 h) [nM]
Cc1c(-c2cn(C)c3ncnc(N)c23)ccc(NC(=O)C(O)c2cccc(F)c2)c1F (centres unmarked) [Example 117, N-(4-(4-amino-7-methyl-7H-pyrrolo[2,3-d]pyrimidin-5-yl)-2-fluoro-3-methylphenyl)-2-(3-fluorophenyl)-2-hydroxyacetamide]	1 to 25	1 to 25	
Cc1c(-c2cn(C)c3ncnc(N)c23)ccc(NC(=O)C(O)c2cccc(F)c2)c1F (centres unmarked) [Example 118, N-(4-(4-amino-7-methyl-7H-pyrrolo[2,3-d]pyrimidin-5-yl)-2-fluoro-3-methylphenyl)-2-(3-fluorophenyl)-2-hydroxyacetamide]	26 to 50	251 to 500	
Cc1cc(NC(=O)C(O)c2cccc(F)c2)c(F)cc1-c1cn(C)c2ncnc(N)c12 (centres unmarked) [Example 120, N-(4-(4-amino-7-methyl-7H-pyrrolo[2,3-d]pyrimidin-5-yl)-2-fluoro-5-methylphenyl)-2-(3-fluorophenyl)-2-hydroxyacetamide]	51 to 100	251 to 500	
Cc1nc(N)c2c(-c3cc(F)c(NC(=O)C(O)c4cccc(F)c4)cc3F)cn(C)c2n1 (centres unmarked) [Example 123, N-(4-(4-amino-2,7-dimethyl-7H-pyrrolo[2,3-d]pyrimidin-5-yl)-2,5-difluorophenyl)-2-(3-fluorophenyl)-2-hydroxyacetamide]	1 to 25		26 to 50
Cc1cc(NC(=O)C(O)c2cccc(F)c2)cc(F)c1-c1cn(C)c2ncnc(N)c12 (centres unmarked) [Example 124, N-(4-(4-amino-7-methyl-7H-pyrrolo[2,3-d]pyrimidin-5-yl)-3-fluoro-5-methylphenyl)-2-(3-fluorophenyl)-2-hydroxyacetamide]	1 to 25		1 to 25
Cc1nc(N)c2c(-c3c(C)cc(NC(=O)C(O)c4cccc(F)c4)cc3F)cn(C)c2n1 (centres unmarked) [Example 125, N-(4-(4-amino-2,7-dimethyl-7H-pyrrolo[2,3-d]pyrimidin-5-yl)-3-fluoro-5-methylphenyl)-2-(3-fluorophenyl)-2-hydroxyacetamide]	1 to 25		51 to 100
Cc1nc(N)c2c(-c3ccc(NC(=O)C(O)c4cccc(C(F)(F)F)c4)nc3C)cn(C)c2n1 (centres unmarked) [Example 130, N-(5-(4-amino-2,7-dimethyl-7H-pyrrolo[2,3-d]pyrimidin-5-yl)-6-methylpyridin-2-yl)-2-hydroxy-2-(3-(trifluoromethyl)phenyl)acetamide]	101 to 250	1000 to 2000	
Cc1nc(N)c2c(-c3cnc(NC(=O)C(O)c4cccc(C(F)(F)F)c4)cc3C)cn(C)c2n1 (centres unmarked) [Example 131, N-(5-(4-amino-2,7-dimethyl-7H-pyrrolo[2,3-d]pyrimidin-5-yl)-4-methylpyridin-2-yl)-2-hydroxy-2-(3-(trifluoromethyl)phenyl)acetamide]	26 to 50	251 to 500	
Cc1nc(N)c2c(-c3cnc(NC(=O)C(O)c4cccc(C(F)(F)F)c4)cc3C)cn(C)c2n1 (centres unmarked) [Example 132, N-(5-(4-amino-2,7-dimethyl-7H-pyrrolo[2,3-d]pyrimidin-5-yl)-4-methylpyriidn-2-yl)-2-hydroxy-2-(3-(trifluoromethyl)phenyl)acetamide]	1 to 25	51 to 100	
Cc1nc(N)c2c(-c3cnc(NC(=O)C(O)c4cccc(F)c4)cc3C)cn(C)c2n1 (centres unmarked) [Example 133, N-(5-(4-amino-2,7-dimethyl-7H-pyrrolo[2,3-d]pyrimidin-5-yl)-4-methylpyridin-2-yl)-2-(3-fluorophenyl)-2-hydroxyacetamide]	251 to 500	4000 to 5000	
Cc1cccc(CC(=O)Nc2ccc(-c3cn(C)c4nc(C)nc(N)c34)c(C)c2)n1 [Example 135, N-(4-(4-amino-2,7-dimethyl-7H-pyrrolo[2,3-d]pyrimidin-5-yl)-3-methylphenyl)-2-(6-methylpyridin-2-yl)acetamide]	26 to 50		251 to 500
Cc1cccc(CC(=O)Nc2ccc(-c3cn(C)c4ncnc(N)c34)c(C)c2)n1 [Example 136, N-(4-(4-amino-7-methyl-7H-pyrrolo[2,3-d]pyrimidin-5-yl)-3-methylphenyl)-2-(6-methylpyridin-2-yl)acetamide]	1 to 25		1 to 25
Cc1cc(NC(=O)Cc2ccccc2)ccc1-c1cn(C)c2ncnc(N)c12 [Example 137, N-(4-(4-amino-7-methyl-7H-pyrrolo[2,3-d]pyrimidin-5-yl)-3-methylphenyl)-2-phenylacetamide]	1 to 25		26 to 50
COc1cccc(CC(=O)Nc2ccc(-c3cn(C)c4ncnc(N)c34)c(C)c2)c1 [Example 139, N-(4-(4-amino-7-methyl-7H-pyrrolo[2,3-d]pyrimidin-5-yl)-3-methylphenyl)-2-(3-methoxyphenyl)acetamide]	26 to 50		251 to 500

Further lines, with some results ahead:

IC50 [2] [nM]	Compound	IC50 [1] [nM]	IC50 ([1]; Homo sapiens, HEK293, 2 h) [nM]
101 to 250	Cc1nc(N)c2c(-c3ccc(NC(=O)C(O)c4cccc(Cl)c4)c(F)c3F)cn(C)c2n1 (centres unmarked) [Example 112, N-(4-(4-amino-2,7-dimethyl-7H-pyrrolo[2,3-d]pyrimidin-5-yl)-2,3-difluorophenyl)-2-(3-chlorophenyl)-2-hydroxyacetamide]	501 to 1000	
1 to 25	Cc1cc(NC(=O)C(O)c2cccc(F)c2)c(F)cc1-c1cn(C)c2ncnc(N)c12 (centres unmarked) [Example 119, N-(4-(4-amino-7-methyl-7H-pyrrolo[2,3-d]pyrimidin-5-yl)-2-fluoro-5-methylphenyl)-2-(3-fluorophenyl)-2-hydroxyacetamide]	1 to 25	
1 to 25	Cc1nc(N)c2c(-c3c(C)cc(NC(=O)C(O)c4cccc(F)c4)cc3C)cn(C)c2n1 (centres unmarked) [Example 126, N-(4-(4-amino-2,7-dimethyl-7H-pyrrolo[2,3-d]pyrimidin-5-yl)-3,5-dimethylphenyl)-2-(3-fluorophenyl)-2-hydroxyacetamide]		51 to 100
1 to 25	Cc1nc(N)c2c(-c3ccc(NC(=O)C(O)c4cccc(F)c4)nc3C)cn(C)c2n1 (centres unmarked) [Example 127, N-(5-(4-amino-2,7-dimethyl-7H-pyrrolo[2,3-d]pyrimidin-5-yl)-6-methylpyridin-2-yl)-2-(3-fluorophenyl)-2-hydroxyacetamide]	101 to 250	
501 to 1000	Cc1nc(N)c2c(-c3ccc(NC(=O)C(O)c4cccc(F)c4)nc3C)cn(C)c2n1 (centres unmarked) [Example 128, N-(5-(4-amino-2,7-dimethyl-7H-pyrrolo[2,3-d]pyrimidin-5-yl)-6-methylpyridin-2-yl)-2-(3-fluorophenyl)-2-hydroxyacetamide]	> 5000	
1 to 25	Cc1nc(N)c2c(-c3ccc(NC(=O)C(O)c4cccc(C(F)(F)F)c4)nc3C)cn(C)c2n1 (centres unmarked) [Example 129, N-(5-(4-amino-2,7-dimethyl-7H-pyrrolo[2,3-d]pyrimidin-5-yl)-6-methylpyridin-2-yl)-2-hydroxy-2-(3-(trifluoromethyl)phenyl)acetamide]	51 to 100	
1 to 25	Cc1nc(N)c2c(-c3cnc(NC(=O)C(O)c4cccc(F)c4)cc3C)cn(C)c2n1 (centres unmarked) [Example 134, N-(5-(4-amino-2,7-dimethyl-7H-pyrrolo[2,3-d]pyrimidin-5-yl)-4-methylpyridin-2-yl)-2-(3-fluorophenyl)-2-hydroxyacetamide]	101 to 250	
1 to 25	COc1ccccc1CC(=O)Nc1ccc(-c2cn(C)c3ncnc(N)c23)c(C)c1 [Example 138, N-(4-(4-amino-7-methyl-7H-pyrrolo[2,3-d]pyrimidin-5-yl)-3-methylphenyl)-2-(2-methoxyphenyl)acetamide]		101 to 250
